# Test results reported in patent publication US9802937B2, “Substituted pyrazolo{4,3-D}pyrimidines as kinase inhibitors” (ORIGENIS GMBH, priority 2011, dated 2017).
# Legend:
# SYK kinase = target: T1, SYK kinase (Homo sapiens, UniProt P43405); test: SYK Assay (OMNIA KINASE ASSAY, SOX peptide fluorescence); format: biochemical; conditions: apparent Ki calculated from the IC50 using the Cheng-Prusoff equation; 1 mM ATP, 30° C.; read-out: SYK Activities: Ki
# T1 construct: purchased Invitrogen, Carlsbad
# Outline: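 Apparent Ki values are derived by Cheng-Prusoff from IC50s of sigmoidal fits of reaction rate against compound concentration. Rates come from chelation-enhanced SOX fluorescence (λex 360/λem 485 nm, read every 30 s over 30 min) as the kinase phosphorylates 10 µM Omnia Tyr 7 peptide at 30 °C, with 1 mM ATP and 0.2 mM DTT.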
# LRRK2 = LRRK2 (Homo sapiens, UniProt Q5S007); test: LRRK2-LRRK2 G2019S-Assay (LanthaScreen Eu Kinase Binding Assay); conditions: 5 nM LRRK2 or their mutants, 10 nM tracer 236, RT 1 h; read-out: LRRK2 Activities: IC50
# Sequence of LRRK2 (Q5S007 970-2527 limits assumed): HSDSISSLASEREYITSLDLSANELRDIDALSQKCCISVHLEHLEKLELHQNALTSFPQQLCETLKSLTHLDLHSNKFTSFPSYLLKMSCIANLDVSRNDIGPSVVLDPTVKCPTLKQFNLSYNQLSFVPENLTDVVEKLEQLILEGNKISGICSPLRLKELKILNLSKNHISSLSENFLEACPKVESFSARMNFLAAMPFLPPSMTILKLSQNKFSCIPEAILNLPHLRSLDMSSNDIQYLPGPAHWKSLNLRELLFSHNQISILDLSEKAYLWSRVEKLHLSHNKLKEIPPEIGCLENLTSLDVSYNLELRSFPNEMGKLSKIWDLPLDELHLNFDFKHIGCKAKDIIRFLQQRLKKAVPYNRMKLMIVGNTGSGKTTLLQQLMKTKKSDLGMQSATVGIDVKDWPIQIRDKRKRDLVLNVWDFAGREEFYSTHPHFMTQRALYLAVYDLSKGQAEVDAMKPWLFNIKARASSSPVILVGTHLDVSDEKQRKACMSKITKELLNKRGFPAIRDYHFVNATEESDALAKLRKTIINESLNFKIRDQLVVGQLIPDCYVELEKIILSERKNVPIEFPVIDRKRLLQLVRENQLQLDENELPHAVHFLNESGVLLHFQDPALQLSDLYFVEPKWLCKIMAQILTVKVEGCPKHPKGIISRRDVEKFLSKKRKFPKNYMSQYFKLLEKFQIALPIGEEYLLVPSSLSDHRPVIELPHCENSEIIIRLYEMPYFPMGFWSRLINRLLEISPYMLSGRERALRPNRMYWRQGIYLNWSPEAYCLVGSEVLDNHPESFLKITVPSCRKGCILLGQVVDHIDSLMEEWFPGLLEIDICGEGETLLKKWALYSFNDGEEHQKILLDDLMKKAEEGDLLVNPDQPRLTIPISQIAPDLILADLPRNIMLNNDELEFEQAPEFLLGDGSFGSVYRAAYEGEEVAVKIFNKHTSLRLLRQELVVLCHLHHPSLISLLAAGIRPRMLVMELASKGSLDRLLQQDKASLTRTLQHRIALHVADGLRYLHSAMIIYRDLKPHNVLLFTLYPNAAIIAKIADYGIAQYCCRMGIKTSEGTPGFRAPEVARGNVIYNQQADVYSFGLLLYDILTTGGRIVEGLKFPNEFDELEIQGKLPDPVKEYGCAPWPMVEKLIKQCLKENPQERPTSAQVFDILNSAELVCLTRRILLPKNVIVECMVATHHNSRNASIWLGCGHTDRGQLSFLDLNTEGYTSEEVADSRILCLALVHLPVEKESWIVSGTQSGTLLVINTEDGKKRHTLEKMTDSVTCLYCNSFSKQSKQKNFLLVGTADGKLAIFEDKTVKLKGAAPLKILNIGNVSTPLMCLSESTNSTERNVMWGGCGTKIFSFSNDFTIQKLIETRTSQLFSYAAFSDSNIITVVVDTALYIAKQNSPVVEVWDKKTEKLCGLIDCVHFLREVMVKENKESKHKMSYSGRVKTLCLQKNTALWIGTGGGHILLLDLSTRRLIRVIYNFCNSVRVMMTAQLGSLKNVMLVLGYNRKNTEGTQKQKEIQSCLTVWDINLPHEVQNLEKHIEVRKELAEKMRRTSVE
# Method: In the assay LanthaScreen™ Eu Kinase Binding Assay by Invitrogen Corporation (Carlsbad) the effect of invention of a compound on the phosphorylation is determined by measurement of fluorescence intensity emission ratio based on the binding and displacement of a proprietary, Alexa Fluor® 647-labeled, ATP-competitive kinase inhibitor scaffold (kinase tracer) to the kinase of interest. Binding of the tracer to the kinase is detected using a europium-labeled anti-tag antibody, which binds to the kinase of interest. Simultaneous binding of both the tracer and antibody to the kinase results in a high degree of FRET (fluorescence resonance energy transfer) from the europium (Eu) donor fluorophore to the Alexa Fluor® 647 acceptor fluorophore on the kinase tracer. Binding of an inhibitor to the kinase competes for binding with the tracer, resulting in a loss of FRET. The fluorescence intensity ratio is directly proportional to the amount of peptide phosphorylation.
# To the wells of an 384 well small volume plate (Greiner, Frickenhausen) are added (i) the compound under test in 5% DMSO/distilled water (5 μl), (ii) 5 μl of the kinase antibody mixture resulting in a final concentration 5 nM LRRK2 or their mutants, 2 nM EU-Anti-GST antibody in 1× kinase buffer A. The reaction was started with addition of (iii) 5 μl resulting in a final concentration of 10 nM tracer 236. The assay plate was incubated at RT for 1 h and fluorescence intensitiy readings were collected using a TECAN M1000 at two wavelengthes of λex 340/λem 615 nm and λex 340/λm 665 nm with a delay time of 100 μs and an integration time of 200 μs after 60 minutes. The emission ratio was calculated by division of the acceptor/tracer emission ([…]) by the antibody/donor emission ([…]). The inhibitor concentration was plotted versus the emission ratio to determine the IC50 using XLFit 5.0 (IDBS, Guildford) to fit to a sigmoidal dose response curve with a variable slope.
Structure (SMILES),Ki (SYK kinase) [nM],IC50 (LRRK2) [nM]
"CN1CCC(c2nc(Nc3ccc4c(c3)NCCO4)c3[nH]ncc3n2)CC1 [Example #93, N-(5-(1-methylpiperidin-4-yl)-1H-pyrazolo[4,3-d]pyrimidin-7-yl)-3,4-dihydro-2H-benzo[b][1,4]oxazin-6-amine]",10 to 100,100 to 1000
"COc1ccc(Nc2nc(-c3nc4ccccc4s3)nc3cn[nH]c23)cc1OC [Example #96, 5-(benzo[d]thiazol-2-yl)-N-(3,4-dimethoxyphenyl)-1H-pyrazolo[4,3-d]pyrimidin-7-amine]",10 to 100,100 to 1000
"COc1ccc(Nc2nc(-c3cccc(-c4cccnc4)c3)nc3cn[nH]c23)cc1OC [Example #101, N-(3,4-dimethoxyphenyl)-5-(3-(pyridin-3-yl)phenyl)-1H-pyrazolo[4,3-d]pyrimidin-7-amine]",10 to 100,100 to 1000
"COc1ccccc1-c1nc(Nc2ccc(N3CCN(C)CC3)cc2)c2[nH]ncc2n1 [Example #108, 5-(2-methoxyphenyl)-N-(4-(4-methylpiperazin-1-yl)phenyl)-1H-pyrazolo[4,3-d]pyrimidin-7-amine]",10 to 100,100 to 1000
"COc1ccc(Nc2nc(-c3ccccc3OC)nc3cn[nH]c23)cc1OC [Example #109, N-(3,4-dimethoxyphenyl)-5-(2-methoxyphenyl)-1H-pyrazolo[4,3-d]pyrimidin-7-amine]",10 to 100,100 to 1000
"COc1ccccc1-c1nc(Nc2ccc3cn[nH]c3c2)c2[nH]ncc2n1 [Example #111, N-(1H-indazol-6-yl)-5-(2-methoxyphenyl)-1H-pyrazolo[4,3-d]pyrimidin-7-amine]",10 to 100,100 to 1000
"CCN1CCN(c2ccc(Nc3nc(-c4ccccc4)nc4cn[nH]c34)cc2)CC1 [Example #119, N-(4-(4-ethylpiperazin-1-yl)phenyl)-5-phenyl-1H-pyrazolo[4,3-d]pyrimidin-7-amine]",< 10,100 to 1000
"c1ccn2cc(-c3nc(Nc4ccc5[nH]ncc5c4)c4[nH]ncc4n3)nc2c1 [Example #126, 5-(imidazo[1,2-a]pyridin-2-yl)-N-(1H-indazol-5-yl)-1H-pyrazolo[4,3-d]pyrimidin-7-amine]",10 to 100,100 to 1000
"O=C(c1ccc(Nc2nc(-c3cccs3)nc3cn[nH]c23)cc1)N1CCCC1 [Example #135, pyrrolidin-1-yl(4-((5-(thiophen-2-yl)-1H-pyrazolo[4,3-d]pyrimidin-7-yl)amino)phenyl)methanone]",10 to 100,< 10
"c1csc(-c2nc(Nc3ccc(N4CCSCC4)cc3)c3[nH]ncc3n2)c1 [Example #136, N-(4-thiomorpholinophenyl)-5-(thiophen-2-yl)-1H-pyrazolo[4,3-d]pyrimidin-7-amine]",10 to 100,10 to 100
"O=S1(=O)CCN(c2ccc(Nc3nc(-c4cccs4)nc4cn[nH]c34)cc2)CC1 [Example #137, 4-(4-((5-(thiophen-2-yl)-1H-pyrazolo[4,3-d]pyrimidin-7-yl)amino)phenyl)thiomorpholine 1,1-dioxide]",< 10,10 to 100
"CN1CCN(c2ccc(Nc3nc(-c4cnc[nH]4)nc4cn[nH]c34)cc2)CC1 [Example #140, 5-(1H-imidazol-5-yl)-N-(4-(4-methylpiperazin-1-yl)phenyl)-1H-pyrazolo[4,3-d]pyrimidin-7-amine]",10 to 100,100 to 1000
"O=C(O)c1cccc(-c2nc(Nc3ccc(N4CCOCC4)cc3)c3[nH]ncc3n2)c1 [Example #156, 3-(7-((4-morpholinophenyl)amino)-1H-pyrazolo[4,3-d]pyrimidin-5-yl)benzoic acid]",10 to 100,100 to 1000
"COc1ccc(-c2nc(Nc3ccc(N4CCS(=O)(=O)CC4)cc3)c3[nH]ncc3n2)cc1 [Example #169, 4-(4-((5-(4-methoxyphenyl)-1H-pyrazolo[4,3-d]pyrimidin-7-yl)amino)phenyl)thiomorpholine 1,1-dioxide]",< 10,100 to 1000
"COc1ccc(-c2nc(Nc3ccc(N4CCN(C(C)=O)CC4)cc3)c3[nH]ncc3n2)cc1 [Example #170, 1-(4-(4-((5-(4-methoxyphenyl)-1H-pyrazolo[4,3-d]pyrimidin-7-yl)amino)phenyl)piperazin-1-yl)ethan-1-one]",< 10,100 to 1000
"COc1ccc(Nc2nc(-c3cccc(S(N)(=O)=O)c3)nc3cn[nH]c23)cc1OC [Example #183, 3-(7-((3,4-dimethoxyphenyl)amino)-1H-pyrazolo[4,3-d]pyrimidin-5-yl)benzenesulfonamide]",< 10,10 to 100
"CC(=O)N1CCN(c2ccc(Nc3nc(-c4nccs4)nc4cn[nH]c34)cc2)CC1 [Example #184, 1-(4-(4-((5-(thiazol-2-yl)-1H-pyrazolo[4,3-d]pyrimidin-7-yl)amino)phenyl)piperazin-1-yl)ethan-1-one]",< 10,10 to 100

# Further lines, results first:
Ki (SYK kinase) [nM],IC50 (LRRK2) [nM],Structure (SMILES)
10 to 100,100 to 1000,"COc1ccccc1-c1nc(Nc2ccc3c(c2)NCCO3)c2[nH]ncc2n1 [Example #110, N-(5-(2-methoxyphenyl)-1H-pyrazolo[4,3-d]pyrimidin-7-yl)-3,4-dihydro-2H-benzo[b][1,4]oxazin-6-amine]"
10 to 100,100 to 1000,"O=C(c1ccc(Nc2nc(-c3ccsc3)nc3cn[nH]c23)cc1)N1CCCC1 [Example #142, pyrrolidin-1-yl(4-((5-(thiophen-3-yl)-1H-pyrazolo[4,3-d]pyrimidin-7-yl)amino)phenyl)methanone]"
10 to 100,10 to 100,"c1cc(-c2nc(Nc3ccc(N4CCSCC4)cc3)c3[nH]ncc3n2)cs1 [Example #145, N-(4-thiomorpholinophenyl)-5-(thiophen-3-yl)-1H-pyrazolo[4,3-d]pyrimidin-7-amine]"
10 to 100,100 to 1000,"O=C1COc2ccc(Nc3nc(-c4ccsc4)nc4cn[nH]c34)cc2N1 [Example #146, 6-((5-(thiophen-3-yl)-1H-pyrazolo[4,3-d]pyrimidin-7-yl)amino)-2H-benzo[b][1,4]oxazin-3(4H)-one]"
10 to 100,100 to 1000,"O=C(c1ccc(Nc2nc(-c3ccsc3)nc3cn[nH]c23)cc1)N1CCOCC1 [Example #157, morpholino(4-((5-(thiophen-3-yl)-1H-pyrazolo[4,3-d]pyrimidin-7-yl)amino)phenyl)methanone]"
10 to 100,10 to 100,"O=C1CSc2ccc(Nc3nc(-c4ccsc4)nc4cn[nH]c34)cc2N1 [Example #158, 6-((5-(thiophen-3-yl)-1H-pyrazolo[4,3-d]pyrimidin-7-yl)amino)-2H-benzo[b][1,4]thiazin-3(4H)-one]"
10 to 100,100 to 1000,"COc1ccc(-c2nc(Nc3ccc4c(c3)NC(=O)CC4)c3[nH]ncc3n2)cc1 [Example #159, 7-((5-(4-methoxyphenyl)-1H-pyrazolo[4,3-d]pyrimidin-7-yl)amino)-3,4-dihydroquinolin-2(1H)-one]"
< 10,100 to 1000,"O=C1COc2ccc(Nc3nc(-c4cccs4)nc4cn[nH]c34)cc2N1 [Example #162, 6-((5-(thiophen-2-yl)-1H-pyrazolo[4,3-d]pyrimidin-7-yl)amino)-2H-benzo[b][1,4]oxazin-3(4H)-one]"
< 10,10 to 100,"COc1ccc(-c2nc(Nc3ccc4c(c3)NC(=O)CCC4)c3[nH]ncc3n2)cc1 [Example #164, 8-((5-(4-methoxyphenyl)-1H-pyrazolo[4,3-d]pyrimidin-7-yl)amino)-4,5-dihydro-1H-benzo[b]azepin-2(3H)-one]"
10 to 100,10 to 100,"CN1CCCc2ccc(Nc3nc(-c4cccs4)nc4cn[nH]c34)cc21 [Example #166, 1-methyl-N-(5-(thiophen-2-yl)-1H-pyrazolo[4,3-d]pyrimidin-7-yl)-1,2,3,4-tetrahydroquinolin-7-amine]"
10 to 100,100 to 1000,"COc1ccc(-c2nc(Nc3ccc4c(c3)NC(=O)CO4)c3[nH]ncc3n2)cc1 [Example #171, 6-((5-(4-methoxyphenyl)-1H-pyrazolo[4,3-d]pyrimidin-7-yl)amino)-2H-benzo[b][1,4]oxazin-3(4H)-one]"
10 to 100,100 to 1000,"CC1(C)CNc2cc(Nc3nc(-c4cccs4)nc4cn[nH]c34)ccc2S1 [Example #173, 2,2-dimethyl-N-(5-(thiophen-2-yl)-1H-pyrazolo[4,3-d]pyrimidin-7-yl)-3,4-dihydro-2H-benzo[b][1,4]thiazin-6-amine]"
